Measured values taken from PubChem BioAssay (NCI).
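Step 1: Grow cells in 96-well plates. Step 2: Expose to compound for 48 hours at 5 concentrations. Step 3: Interpolate endpoints linearly; if unreached, use highest concentration. At the GI50, growth is halved. TGI: concentration producing complete growth inhibition.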

What was measured:
Experiment in all cases: growth of human tumour cells (NCI), 48 h; in the data active = GI50 below about 0.43 µM; inactive = the rest
MDA-MB-231 breast = tested on: MDA-MB-231 breast
HOP-92 NSCLC = tested on: HOP-92 NSCLC
DU-145 prostate = tested on: DU-145 prostate
EKVX NSCLC = tested on: EKVX NSCLC
HL-60(TB) leukemia = tested on: HL-60(TB) leukemia
CAKI-1 renal = tested on: CAKI-1 renal
UACC-257 melanoma = tested on: UACC-257 melanoma
786-0 renal = tested on: 786-0 renal
UO-31 renal = tested on: UO-31 renal
MDA-MB-435 = tested on: MDA-MB-435
SF-539 CNS = tested on: SF-539 CNS
HCT-15 colon = tested on: HCT-15 colon
NCI-H226 lung = tested on: NCI-H226 lung
A498 renal = tested on: A498 renal
SK-MEL-28 melanoma = tested on: SK-MEL-28 melanoma
SF-268 CNS = tested on: SF-268 CNS
ACHN renal = tested on: ACHN renal
U251 CNS = tested on: U251 CNS
K-562 leukemia = tested on: K-562 leukemia
SK-MEL-2 melanoma = tested on: SK-MEL-2 melanoma
OVCAR-5 ovarian = tested on: OVCAR-5 ovarian
IGROV1 ovarian = tested on: IGROV1 ovarian
SK-MEL-5 melanoma = tested on: SK-MEL-5 melanoma
A549 NSCLC = tested on: A549 NSCLC
MOLT-4 leukemia = tested on: MOLT-4 leukemia
HT29 colon = tested on: HT29 colon
PC-3 prostate = tested on: PC-3 prostate
LOX IMVI melanoma = tested on: LOX IMVI melanoma
MCF7 breast = tested on: MCF7 breast
TK-10 renal = tested on: TK-10 renal
SN12C renal = tested on: SN12C renal
BT-549 breast = tested on: BT-549 breast
M14 melanoma = tested on: M14 melanoma
UACC-62 melanoma = tested on: UACC-62 melanoma
HS 578T breast = tested on: HS 578T breast
NCI-H522 lung = tested on: NCI-H522 lung
OVCAR-8 ovarian = tested on: OVCAR-8 ovarian
RXF 393 renal = tested on: RXF 393 renal
OVCAR-3 ovarian = tested on: OVCAR-3 ovarian
COLO 205 colon = tested on: COLO 205 colon
SR leukemia = tested on: SR leukemia
RPMI-8226 leukemia = tested on: RPMI-8226 leukemia
NCI-H460 lung = tested on: NCI-H460 lung
KM12 colon = tested on: KM12 colon
OVCAR-4 ovarian = tested on: OVCAR-4 ovarian
SNB-19 CNS = tested on: SNB-19 CNS
NCI/ADR-RES ovarian = tested on: NCI/ADR-RES ovarian
SF-295 CNS = tested on: SF-295 CNS
HCT-116 colon = tested on: HCT-116 colon
NCI-H23 lung = tested on: NCI-H23 lung
SNB-75 CNS = tested on: SNB-75 CNS
SW-620 colon = tested on: SW-620 colon
HOP-62 NSCLC = tested on: HOP-62 NSCLC
MALME-3M melanoma = tested on: MALME-3M melanoma
CCRF-CEM leukemia = tested on: CCRF-CEM leukemia
HCC-2998 colon = tested on: HCC-2998 colon
SK-OV-3 ovarian = tested on: SK-OV-3 ovarian
T-47D breast = tested on: T-47D breast

OCC#CCCCCOCC#Cc1ccccc1C#CCOCCCCC#CCO
38.3 µM: TGI (MDA-MB-231 breast)
> 100 µM: TGI (HL-60(TB) leukemia) | TGI (UACC-257 melanoma) | TGI (786-0 renal) | TGI (UO-31 renal) | TGI (SF-268 CNS) | TGI (SK-MEL-2 melanoma) | TGI (OVCAR-5 ovarian) | TGI (IGROV1 ovarian) | TGI (A549 NSCLC) | TGI (MOLT-4 leukemia) | TGI (MCF7 breast) | TGI (M14 melanoma) | TGI (NCI-H522 lung) | TGI (OVCAR-8 ovarian) | TGI (COLO 205 colon) | TGI (SR leukemia) | TGI (NCI-H460 lung) | TGI (SNB-19 CNS) | TGI (HCT-116 colon)
45.7 µM: TGI (OVCAR-3 ovarian)
53.9 µM: TGI (OVCAR-4 ovarian)
34.7 µM: TGI (HCT-15 colon)
58.7 µM: TGI (ACHN renal)
48.8 µM: TGI (NCI-H23 lung)
65.4 µM: TGI (HS 578T breast)
40.5 µM: TGI (KM12 colon)
39 µM: TGI (SN12C renal)
41.6 µM: TGI (TK-10 renal)
98.4 µM: TGI (PC-3 prostate)
34.3 µM: TGI (A498 renal) | TGI (UACC-62 melanoma)
30.5 µM: TGI (SK-MEL-5 melanoma)
41.3 µM: TGI (DU-145 prostate) | TGI (EKVX NSCLC)
65.6 µM: TGI (K-562 leukemia)
64.8 µM: TGI (CAKI-1 renal)
33.2 µM: TGI (SF-539 CNS)
inactive: GI50 (MDA-MB-231 breast) 16.1 µM | GI50 (HOP-92 NSCLC) 28.8 µM | GI50 (DU-145 prostate) 17.6 µM | GI50 (EKVX NSCLC) 17.8 µM | GI50 (HL-60(TB) leukemia) 36.2 µM | GI50 (CAKI-1 renal) 27.2 µM | GI50 (UACC-257 melanoma) 37.3 µM | GI50 (786-0 renal) 36.9 µM | GI50 (UO-31 renal) 55.5 µM | GI50 (MDA-MB-435) 20 µM | GI50 (SF-539 CNS) 17.6 µM | GI50 (HCT-15 colon) 16.3 µM | GI50 (NCI-H226 lung) 23.7 µM | GI50 (A498 renal) 4.35 µM | GI50 (SK-MEL-28 melanoma) 20.1 µM | GI50 (SF-268 CNS) 37.4 µM | GI50 (ACHN renal) 21.7 µM | GI50 (U251 CNS) 17.2 µM | GI50 (K-562 leukemia) 22.3 µM | GI50 (SK-MEL-2 melanoma) 51.1 µM | GI50 (OVCAR-5 ovarian) 48.4 µM | GI50 (IGROV1 ovarian) 46.1 µM | GI50 (SK-MEL-5 melanoma) 15.1 µM | GI50 (A549 NSCLC) 39.8 µM | GI50 (MOLT-4 leukemia) 14.8 µM | GI50 (HT29 colon) 21.2 µM | GI50 (PC-3 prostate) 40.6 µM | GI50 (LOX IMVI melanoma) 12.5 µM | GI50 (MCF7 breast) 47.5 µM | GI50 (TK-10 renal) 11.9 µM | GI50 (SN12C renal) 22.3 µM | GI50 (BT-549 breast) 16.8 µM | GI50 (M14 melanoma) 31.2 µM | GI50 (UACC-62 melanoma) 18.4 µM | GI50 (HS 578T breast) 25 µM | GI50 (NCI-H522 lung) 71.3 µM | GI50 (OVCAR-8 ovarian) 52.3 µM | GI50 (RXF 393 renal) 31.8 µM | GI50 (OVCAR-3 ovarian) 18.7 µM | GI50 (COLO 205 colon) 27.1 µM | GI50 (SR leukemia) 43.6 µM | GI50 (RPMI-8226 leukemia) 29.3 µM | GI50 (NCI-H460 lung) 31.3 µM | GI50 (KM12 colon) 19.6 µM | GI50 (OVCAR-4 ovarian) 14.8 µM | GI50 (SNB-19 CNS) 28.9 µM | GI50 (NCI/ADR-RES ovarian) 23.6 µM | GI50 (SF-295 CNS) 19.2 µM | GI50 (HCT-116 colon) 22.5 µM | GI50 (NCI-H23 lung) 23 µM | GI50 (SNB-75 CNS) 20.6 µM | GI50 (SW-620 colon) 21.9 µM
50.9 µM: TGI (SW-620 colon)
45.9 µM: TGI (MDA-MB-435)
59 µM: TGI (NCI-H226 lung)
87.8 µM: TGI (RPMI-8226 leukemia)
62 µM: TGI (HOP-92 NSCLC)
96.9 µM: TGI (RXF 393 renal)
27.3 µM: TGI (LOX IMVI melanoma)
66.2 µM: TGI (SNB-75 CNS)
35.2 µM: TGI (U251 CNS)
51.6 µM: TGI (SK-MEL-28 melanoma)
41.2 µM: TGI (BT-549 breast)
56.5 µM: TGI (SF-295 CNS)
63.6 µM: TGI (HT29 colon)
57.9 µM: TGI (NCI/ADR-RES ovarian)

Cn1ccc2c3c(=O)cc[nH]c3ccc21
95.1 µM: TGI (CAKI-1 renal)
> 100 µM: TGI (MDA-MB-231 breast) | TGI (HOP-92 NSCLC) | TGI (DU-145 prostate) | TGI (EKVX NSCLC) | TGI (HL-60(TB) leukemia) | TGI (UACC-257 melanoma) | TGI (786-0 renal) | TGI (UO-31 renal) | TGI (MDA-MB-435) | TGI (SF-539 CNS) | TGI (HCT-15 colon) | TGI (NCI-H226 lung) | TGI (HOP-62 NSCLC) | TGI (SK-MEL-28 melanoma) | TGI (MALME-3M melanoma) | TGI (SF-268 CNS) | TGI (ACHN renal) | TGI (U251 CNS) | TGI (CCRF-CEM leukemia) | TGI (K-562 leukemia) | TGI (SK-MEL-2 melanoma) | TGI (OVCAR-5 ovarian) | TGI (IGROV1 ovarian) | TGI (SK-MEL-5 melanoma) | TGI (HCC-2998 colon) | TGI (A549 NSCLC) | TGI (MOLT-4 leukemia) | TGI (HT29 colon) | TGI (PC-3 prostate) | TGI (LOX IMVI melanoma) | TGI (MCF7 breast) | TGI (SK-OV-3 ovarian) | TGI (TK-10 renal) | TGI (SN12C renal) | TGI (BT-549 breast) | TGI (M14 melanoma) | TGI (UACC-62 melanoma) | TGI (HS 578T breast) | TGI (NCI-H522 lung) | TGI (OVCAR-8 ovarian) | TGI (RXF 393 renal) | TGI (T-47D breast) | TGI (OVCAR-3 ovarian) | TGI (COLO 205 colon) | TGI (SR leukemia) | TGI (RPMI-8226 leukemia) | TGI (NCI-H460 lung) | TGI (KM12 colon) | TGI (OVCAR-4 ovarian) | TGI (SNB-19 CNS) | TGI (NCI/ADR-RES ovarian) | TGI (SF-295 CNS) | TGI (HCT-116 colon) | TGI (NCI-H23 lung) | TGI (SNB-75 CNS) | TGI (SW-620 colon)
inactive: GI50 (MDA-MB-231 breast) > 100 µM | GI50 (HOP-92 NSCLC) 69.2 µM | GI50 (DU-145 prostate) > 100 µM | GI50 (EKVX NSCLC) > 100 µM | GI50 (HL-60(TB) leukemia) > 100 µM | GI50 (CAKI-1 renal) 32.4 µM | GI50 (UACC-257 melanoma) > 100 µM | GI50 (786-0 renal) > 100 µM | GI50 (UO-31 renal) > 100 µM | GI50 (MDA-MB-435) > 100 µM | GI50 (SF-539 CNS) > 100 µM | GI50 (HCT-15 colon) > 100 µM | GI50 (NCI-H226 lung) > 100 µM | GI50 (HOP-62 NSCLC) > 100 µM | GI50 (SK-MEL-28 melanoma) 12.7 µM | GI50 (MALME-3M melanoma) > 100 µM | GI50 (SF-268 CNS) > 100 µM | GI50 (ACHN renal) > 100 µM | GI50 (U251 CNS) > 100 µM | GI50 (CCRF-CEM leukemia) > 100 µM | GI50 (K-562 leukemia) > 100 µM | GI50 (SK-MEL-2 melanoma) > 100 µM | GI50 (OVCAR-5 ovarian) > 100 µM | GI50 (IGROV1 ovarian) > 100 µM | GI50 (SK-MEL-5 melanoma) > 100 µM | GI50 (HCC-2998 colon) > 100 µM | GI50 (A549 NSCLC) > 100 µM | GI50 (MOLT-4 leukemia) > 100 µM | GI50 (HT29 colon) > 100 µM | GI50 (PC-3 prostate) > 100 µM | GI50 (LOX IMVI melanoma) > 100 µM | GI50 (MCF7 breast) > 100 µM | GI50 (SK-OV-3 ovarian) 80.1 µM | GI50 (TK-10 renal) > 100 µM | GI50 (SN12C renal) > 100 µM | GI50 (BT-549 breast) > 100 µM | GI50 (M14 melanoma) > 100 µM | GI50 (UACC-62 melanoma) > 100 µM | GI50 (HS 578T breast) 20.2 µM | GI50 (NCI-H522 lung) > 100 µM | GI50 (OVCAR-8 ovarian) > 100 µM | GI50 (RXF 393 renal) > 100 µM | GI50 (T-47D breast) > 100 µM | GI50 (OVCAR-3 ovarian) > 100 µM | GI50 (COLO 205 colon) > 100 µM | GI50 (SR leukemia) > 100 µM | GI50 (RPMI-8226 leukemia) > 100 µM | GI50 (NCI-H460 lung) > 100 µM | GI50 (KM12 colon) > 100 µM | GI50 (OVCAR-4 ovarian) > 100 µM | GI50 (SNB-19 CNS) > 100 µM | GI50 (NCI/ADR-RES ovarian) > 100 µM | GI50 (SF-295 CNS) > 100 µM | GI50 (HCT-116 colon) > 100 µM | GI50 (NCI-H23 lung) > 100 µM | GI50 (SNB-75 CNS) > 100 µM | GI50 (SW-620 colon) > 100 µM
